Source: ChEMBL document CHEMBL3792352, “3D-QSAR-aided design, synthesis, in vitro and in vivo evaluation of dipeptidyl boronic acid proteasome inhibitors and mechanism studies” (Bioorg Med Chem, 2016)

Key:
[1] = target: T1, Proteasome Macropain subunit MB1 (Homo sapiens, UniProt P28074); test: Inhibition of chymotrypsin like activity of human 20S proteasome using Suc-Leu-Leu-Val-Tyr-AMC as substrate preincubated for 10 mins followed by substrate addition measured after 1 hr by spectrofluorimetric analysis
T1 sequence (P28074 whole entry): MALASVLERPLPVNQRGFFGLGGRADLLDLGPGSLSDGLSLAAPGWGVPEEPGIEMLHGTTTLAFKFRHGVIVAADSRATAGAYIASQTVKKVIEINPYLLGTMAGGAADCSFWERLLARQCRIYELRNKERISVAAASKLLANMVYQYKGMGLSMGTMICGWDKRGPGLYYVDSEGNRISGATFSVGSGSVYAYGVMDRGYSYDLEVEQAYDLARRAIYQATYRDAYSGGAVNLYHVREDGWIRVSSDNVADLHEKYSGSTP

[2] = AUC(0 to infinity) in Sprague-Dawley rat at 1 mg/kg, caudal iv by LC/MS/MS analysis; assay type: ADME, organism-based; parameters: dose 1 mg/kg, route intravenous, time infinity; details: in vivo
[3] = Cell cycle arrest in human U266 cells assessed as accumulation at G1 phase at 10 nM by propidium iodide/RNase staining based flow cytometric analysis (reference value: 58.21 %); assay type: functional; details: U-266
[4] = Cytotoxicity against human ARH77 cells assessed as cell viability after 72 hrs by CellTiter 96 aqueous one solution cell proliferation assay; assay type: functional, ARH-77
[5] = Cell cycle arrest in human U266 cells assessed as accumulation at S phase at 10 nM by propidium iodide/RNase staining based flow cytometric analysis (reference value: 29.47 %); assay type: functional; details: U-266
[6] = Elimination half life in Sprague-Dawley rat at 1 mg/kg, caudal iv by LC/MS/MS analysis; assay type: ADME, organism-based; details: in vivo, read-out: beta t1/2 (converted)
[7] = AUClast in Sprague-Dawley rat at 1 mg/kg, caudal iv by LC/MS/MS analysis; assay type: ADME, organism-based; parameters: dose 1 mg/kg, route intravenous, time 0 - last; details: in vivo
[8] = Cell cycle arrest in human U266 cells assessed as accumulation at G2/M phase at 10 nM by propidium iodide/RNase staining based flow cytometric analysis (reference value: 12.33 %); assay type: functional; details: U-266
[9] = tested on: Rattus norvegicus; test: AUC(0 to infinity) in Sprague-Dawley rat at 0.2 mg/kg, ig through feeding tube by LC/MS/MS analysis; assay type: ADME, organism-based; parameters: dose 0.2 mg/kg, route intragastric, time infinity; details: in vivo, po
[10] = tested on: Rattus norvegicus; test: Elimination half life in Sprague-Dawley rat at 0.2 mg/kg, ig through feeding tube by LC/MS/MS analysis; assay type: ADME, organism-based; details: in vivo, po
[11] = Cytotoxicity against human RPMI8226 cells assessed as cell viability after 72 hrs by CellTiter 96 aqueous one solution cell proliferation assay; assay type: functional, RPMI-8226
[12] = tested on: Rattus norvegicus; test: Tmax in Sprague-Dawley rat at 0.2 mg/kg, ig through feeding tube by LC/MS/MS analysis; assay type: ADME, organism-based; details: in vivo, po
[13] = tested on: Rattus norvegicus; test: Cmax in Sprague-Dawley rat at 0.2 mg/kg, ig through feeding tube by LC/MS/MS analysis; assay type: ADME, organism-based; parameters: dose 0.2 mg/kg, route intragastric; details: in vivo, po
[14] = Cytotoxicity against human U266B1 cells assessed as cell viability after 72 hrs by CellTiter 96 aqueous one solution cell proliferation assay; assay type: functional, U-266
[15] = Cmax in Sprague-Dawley rat at 1 mg/kg, caudal iv by LC/MS/MS analysis; assay type: ADME, organism-based; parameters: dose 1 mg/kg, route intravenous; details: in vivo
[16] = AUClast in Sprague-Dawley rat at 0.2 mg/kg, ig through feeding tube by LC/MS/MS analysis; assay type: ADME, organism-based; parameters: dose 0.2 mg/kg, route intragastric, time 0 - last; details: in vivo, po
[17] = MRTlast in Sprague-Dawley rat at 1 mg/kg, caudal iv by LC/MS/MS analysis; assay type: ADME, organism-based; details: in vivo
[18] = MRTlast in Sprague-Dawley rat at 0.2 mg/kg, ig through feeding tube by LC/MS/MS analysis; assay type: ADME, organism-based; details: in vivo, po

Structure (SMILES)	IC50 ([1]; read-out: IC50)	other results
CC(C)(C)OC(=O)N[C@@H](Cc1ccc(O)cc1)C(=O)N[C@@H](Cc1ccccc1)B1OC2C[C@@H]3C[C@@H](C3(C)C)[C@]2(C)O1 (stereo partly specified)	114 nM	–
CCCC[C@H](NC(=O)[C@H](CC(C)C)NC(=O)OC(C)(C)C)B1OC2C[C@@H]3C[C@@H](C3(C)C)[C@]2(C)O1 (stereo partly specified)	49.5 nM	–
CC(C)C[C@H](NC(=O)[C@H](Cc1ccc2ccccc2c1)NC(=O)C1CCCc2ccccc21)B1OC2C[C@@H]3C[C@@H](C3(C)C)[C@]2(C)O1 (stereo partly specified)	7.63 nM	–
CC(C)C[C@H](NC(=O)[C@H](Cc1ccc(C(F)(F)F)cc1)NC(=O)c1cnccn1)B(O)O	42.6 nM	–
CC1(C)[C@@H]2CC3OB([C@H](Cc4ccc(F)cc4)NC(=O)[C@H](Cc4ccccc4)NC(=O)[C@H]4CCCc5ccccc54)O[C@@]3(C)[C@H]1C2 (stereo partly specified)	1.26 nM	–
CC(C)C[C@H](NC(=O)[C@H](Cc1cccc2ccccc12)NC(=O)C1CCCc2ccccc21)B1OC2C[C@@H]3C[C@@H](C3(C)C)[C@]2(C)O1 (stereo partly specified)	4.26 nM	–
COc1ccc(C[C@H](NC(=O)c2cc(Cl)ccc2Cl)C(=O)N[C@@H](CC(C)C)B(O)O)c(OC)c1	4.6 nM	AUC(0-inf) [2]: 83 ng·h/mL; Activity [3]: 43.7%; Activity [4]: 14.58%; Activity [5]: 34.8%; half-life [6]: 434 min; AUC(0-t) [7]: 47.9 ng·h/mL; Activity [8]: 21.5%; AUC [9]: 408 ng·h/mL; beta t1/2 [10]: 12 min; Activity [11]: 37.78%; Tmax [12]: 1.8 min; Cmax [13]: 245 ng/mL; Activity [14]: 18.66%; Cmax [15]: 7.83 ng/mL; AUC(0-t) [16]: 407 ng·h/mL; MRT last [17]: 8.44 h; MRT last [18]: 6.9 h
CC(C)C[C@H](NC(=O)[C@H](CC(C)C)NC(=O)C1CCCc2ccccc21)B1OC2C[C@@H]3C[C@@H](C3(C)C)[C@]2(C)O1 (stereo partly specified)	14.2 nM	–
CC(C)C[C@H](NC(=O)[C@H](Cc1ccccc1)NC(=O)C1CCCc2ccccc21)B1OC2C[C@@H]3C[C@@H](C3(C)C)[C@]2(C)O1 (stereo partly specified)	4.18 nM	–
CC(C)C[C@H](NC(=O)[C@H](Cc1ccccc1)NC(=O)[C@@H]1CCCc2ccccc21)B1OC2C[C@@H]3C[C@@H](C3(C)C)[C@]2(C)O1 (stereo partly specified)	5.17 nM	–
CC(=O)N[C@@H](Cc1ccccc1)C(=O)N[C@@H](CC(C)C)B1OC2C[C@@H]3C[C@@H](C3(C)C)[C@]2(C)O1 (stereo partly specified)	2.34 nM	–
CC(C)C[C@H](NC(=O)[C@H](Cc1cccc2ccccc12)NC(=O)c1cccc2c1CCCC2)B1OC2C[C@@H]3C[C@@H](C3(C)C)[C@]2(C)O1 (stereo partly specified)	1.34 nM	–
CC(C)C[C@H](NC(=O)[C@H](Cc1ccccc1)NC(=O)[C@H]1CCCc2ccccc21)B1OC2C[C@@H]3C[C@@H](C3(C)C)[C@]2(C)O1 (stereo partly specified)	1.12 nM	–
CC(C)C[C@H](NC(=O)[C@H](Cc1ccc2ccccc2c1)NC(=O)[C@H]1CCCc2ccccc21)B1OC2C[C@@H]3C[C@@H](C3(C)C)[C@]2(C)O1 (stereo partly specified)	6.12 nM	–
Cc1ccc(C[C@H](NC(=O)[C@H](Cc2c[nH]c3ccccc23)NC(=O)OCc2ccccc2)B2OC3C[C@@H]4C[C@@H](C4(C)C)[C@]3(C)O2)cc1 (stereo partly specified)	3.34 nM	–
CC(C)C[C@H](NC(=O)[C@H](Cc1ccc(C(F)(F)F)cc1)NC(=O)c1cc(Cl)ccc1Cl)B(O)O	8.32 nM	Activity [4]: 98.15%; Activity [11]: 233.7%; Activity [14]: 100.4%
CC1(C)[C@@H]2CC3OB([C@H](Cc4ccc(F)cc4)NC(=O)[C@H](Cc4ccccc4)NC(=O)c4cnccn4)O[C@@]3(C)[C@H]1C2 (stereo partly specified)	3.21 nM	–
CC(C)C[C@H](NC(=O)[C@H](Cc1cc(C(F)(F)F)cc(C(F)(F)F)c1)NC(=O)c1cc(Cl)ccc1Cl)B(O)O	25 nM	–
Cc1ccc(C[C@H](NC(=O)[C@H](Cc2ccccc2)NC(=O)[C@H]2CCCc3ccccc32)B2OC3C[C@@H]4C[C@@H](C4(C)C)[C@]3(C)O2)cc1 (stereo partly specified)	6.7 nM	–
CC(C)C[C@H](NC(=O)[C@H](Cc1ccccc1)NC(=O)c1cnccn1)B(O)O [BORTEZOMIB]	–	Activity [4]: 9.57%; Activity [11]: 11.2%; Activity [14]: 11.63%
CC(C)C[C@H](NC(=O)[C@@H](NC(=O)c1cccc2c1CCCC2)C(C)C)B1OC2C[C@@H]3C[C@@H](C3(C)C)[C@]2(C)O1 (stereo partly specified)	6.96 nM	–
Cc1ccc(C[C@H](NC(=O)[C@H](CC(C)C)NC(=O)OC(C)(C)C)B2OC3C[C@@H]4C[C@@H](C4(C)C)[C@]3(C)O2)cc1 (stereo partly specified)	471 nM	–

Structure (SMILES)	IC50 ([1]; read-out: IC50)	other results
CC(C)C[C@H](NC(=O)[C@H](CC(C)C)NC(=O)c1cccc2c1CCCC2)B1OC2C[C@@H]3C[C@@H](C3(C)C)[C@]2(C)O1 (stereo partly specified)	1.15 nM	–
CC(C)C[C@H](NC(=O)[C@H](Cc1ccccc1)NC(=O)C1CCc2ccccc2C1)B1OC2C[C@@H]3C[C@@H](C3(C)C)[C@]2(C)O1 (stereo partly specified)	1.46 nM	–
CC1(C)[C@@H]2CC3OB([C@H](Cc4ccccc4)NC(=O)[C@H](Cc4ccccc4)NC(=O)[C@H]4CCCc5ccccc54)O[C@@]3(C)[C@H]1C2 (stereo partly specified)	5.24 nM	–
Cc1ccc(C[C@H](NC(=O)[C@H](Cc2ccccc2)NC(=O)C2CCc3ccccc3C2)B2OC3C[C@@H]4C[C@@H](C4(C)C)[C@]3(C)O2)cc1 (stereo partly specified)	1.16 nM	–
CC(C)C[C@H](NC(=O)[C@H](Cc1ccccc1)NC(=O)c1cccc2c1CCCC2)B1OC2C[C@@H]3C[C@@H](C3(C)C)[C@]2(C)O1 (stereo partly specified)	0.76 nM	IC50 ([1]; read-out: pIC50 (converted)): 1.32 nM
CC(C)C[C@H](NC(=O)[C@H](Cc1ccc2ccccc2c1)NC(=O)c1cccc2c1CCCC2)B1OC2C[C@@H]3C[C@@H](C3(C)C)[C@]2(C)O1 (stereo partly specified)	1.16 nM	–
Cc1cnc(C(=O)N[C@@H](Cc2ccccc2)C(=O)N[C@@H](CC(C)C)B(O)O)cn1	26.2 nM	–
CC(C)C[C@H](NC(=O)[C@H](Cc1ccccc1)NC(=O)c1cnccn1)B1OC2C[C@@H]3C[C@@H](C3(C)C)[C@]2(C)O1 (stereo partly specified)	1.92 nM	–
CCC(C)[C@H](NC(=O)C1CCCc2ccccc21)C(=O)N[C@@H](CC(C)C)B1OC2C[C@@H]3C[C@@H](C3(C)C)[C@]2(C)O1 (stereo partly specified)	17.2 nM	–
CC(C)C[C@H](NC(=O)[C@H](Cc1cccc2ccccc12)NC(=O)c1ccc2ccccc2c1)B1OC2C[C@@H]3C[C@@H](C3(C)C)[C@]2(C)O1 (stereo partly specified)	2.46 nM	–
CC(=O)N[C@@H](Cc1ccccc1)C(=O)N[C@@H](Cc1ccc(C)cc1)B1OC2C[C@@H]3C[C@@H](C3(C)C)[C@]2(C)O1 (stereo partly specified)	2.73 nM	–
CC(C)C[C@H](NC(=O)[C@H](Cc1c[nH]c2ccccc12)NC(=O)OCc1ccccc1)B1OC2C[C@@H]3C[C@@H](C3(C)C)[C@]2(C)O1 (stereo partly specified)	41.2 nM	–
CCCC[C@H](NC(=O)[C@H](Cc1ccccc1)NC(=O)[C@H]1CCCc2ccccc21)B1OC2C[C@@H]3C[C@@H](C3(C)C)[C@]2(C)O1 (stereo partly specified)	1.92 nM	–
O=C(N[C@@H](Cc1ccccc1)C(=O)N[C@@H](Cc1ccc(F)cc1)B(O)O)c1cnccn1	4.37 nM	–
CC(C)C[C@H](NC(=O)[C@@H](NC(=O)C1CCCc2ccccc21)C(C)C)B1OC2C[C@@H]3C[C@@H](C3(C)C)[C@]2(C)O1 (stereo partly specified)	39 nM	–
CC(C)C[C@H](NC(=O)[C@H](Cc1c[nH]c2ccccc12)NC(=O)C1CCCc2ccccc21)B1OC2C[C@@H]3C[C@@H](C3(C)C)[C@]2(C)O1 (stereo partly specified)	3.67 nM	–
CC(C)C[C@H](NC(=O)OC(C)(C)C)C(=O)N[C@@H](Cc1ccccc1)B1OC2C[C@@H]3C[C@@H](C3(C)C)[C@]2(C)O1 (stereo partly specified)	120 nM	–
Cc1ccc(C[C@H](NC(=O)[C@H](Cc2ccccc2)NC(=O)c2cnccn2)B2OC3C[C@@H]4C[C@@H](C4(C)C)[C@]3(C)O2)cc1 (stereo partly specified)	4.85 nM	–
CC(C)C[C@H](NC(=O)[C@H](Cc1ccc(O)cc1)NC(=O)OC(C)(C)C)B1OC2C[C@@H]3C[C@@H](C3(C)C)[C@]2(C)O1 (stereo partly specified)	16.4 nM	–
CCCC[C@H](NC(=O)[C@H](Cc1ccccc1)NC(C)=O)B1OC2C[C@@H]3C[C@@H](C3(C)C)[C@]2(C)O1 (stereo partly specified)	8.46 nM	–
CC1(C)[C@@H]2CC3OB([C@H](Cc4ccccc4)NC(=O)[C@H](Cc4ccccc4)NC(=O)C4CCc5ccccc5C4)O[C@@]3(C)[C@H]1C2 (stereo partly specified)	3.37 nM	–
